Patent US20070213291A1, “Therapeutically useful synthetic oligonucleotides” (priority 1999, published 2007)
Values joined by “and” are separate entries in the source; they are usually repeats but may differ in a detail not shown here. Equal entries are not always repeated.

Legend:
Format in all cases: cell-based
[1] = system: human peripheral blood mononuclear cells; assay: Cytokine production by human PBMC (ELISA); conditions: PBMC of 7 healthy humans, 100 μg/ml, 48 h
Summary of the method: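 PBMC from 7 healthy donors, Ficoll-isolated; 1×10^6 cells incubated with 100 μg/ml oligonucleotide sequence for 48 h at 37 °C, 5% CO2. IL-1beta, IL-6, IL-10, IL-12 (p70 plus free p40) and TNF-alpha measured by ELISA in supernatant, expressed as fold increase over control cells.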

chimpanzee PBMCs = assay: Cytokine production by chimpanzee PBMC (ELISA); conditions: PBMC of 4 healthy chimpanzees, 100 μg/ml, 48 h
Summary of the method: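 PBMCs from 4 healthy chimpanzees (1×10^6 cells) were incubated 48 h at 37 °C, 5% CO2 with 100 μg/ml of each 6-base sequence. Supernatant IL-10, IL-12 (p70 plus free p40) and TNF-alpha were measured by ELISA. Values are fold increase over untreated control cells.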

rhesus monkey PBMCs = assay: Cytokine production by rhesus monkey PBMC (ELISA); conditions: PBMC of 4 healthy rhesus monkeys, 100 μg/ml, 48 h
Summary of the method: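 Peripheral blood mononuclear cells taken from 4 healthy rhesus monkeys were cultured at 1×10^6 cells with 100 μg/ml of each test sequence for 48 h at 37° C. under 5% CO2. Cytokine levels in 100 μl of supernatant were quantified in pg/ml by commercial ELISA and reported as fold increase over untreated control cells.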

[2] = system: LNCaP human prostate cancer cells; assay: Inhibition of LNCaP cell proliferation (MTT); conditions: 100 μg/ml, 48 h, 5×10^5 cells/ml
Summary of the method: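 Cells (2.5×10^5 or 5×10^5 cells/ml) exposed to 100 μg/ml of 2–45 base A/C/G/T sequences, including 6-base GT sequences, versus untreated control, 48 h at 37 °C, 5% CO2. Proliferation read by MTT reduction at 570 nm.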

[3] = system: HL-60 human promyelocytic leukemia cells; assay: Inhibition of HL-60 cell proliferation (MTT); conditions: 100 μg/ml, 48 h
Method: (§1) Cells were seeded in 6 (1 ml/well), 24 (0.5 ml/well) or 96 (0.1 ml/well) well flat-bottom microplates and were maintained at 37° C. in a 5% CO2 atmosphere. Unless stated otherwise, 2.5×10^5 cells/ml were incubated with 0 μg/ml (control) and 100 μg/ml (treated) of 2 to 45 base sequences containing A, C, G and T for 48 h.
(§2) Cell proliferation was measured using dimethylthiazol-diphenyl-tetrazolium (MTT) reduction (Mosman et al. J. Immunol. Methods 65:55, 1983). MTT was measured at a wavelength of 570 nm using a multiplate spectrophotometer reader (ELX800, Bio-TEK Instruments Inc., Winooski, Vt.).
HL-60 promyelocytic leukemia cells are a p53 mutated human suspension tumor model. HL-60 cells were incubated with 6 base GT sequences (Table 6).

[4] = system: A20 murine B leukemia cells; assay: Inhibition of A20 cell proliferation (MTT); conditions: 100 μg/ml, 48 h
Method: as §1, §2
A20 murine leukemia B cells are a suspension tumor model. A20 murine leukemia B cells were incubated with 6 base GT sequences (Table 19).

[5] = system: THP-1 human acute monocytic leukemia cells; assay: Cytokine production by THP-1 cells (ELISA); conditions: THP-1, 1×10^6 cells, 100 μg/ml, 48 h; for ↑ IL-12 (fold increase treated vs control cells): p70 complex and free p40
Summary of the method: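 1×10^6 cells exposed to 100 μg/ml of each oligonucleotide sequence for 48 h at 37° C in 5% CO2, unless stated otherwise. Cytokines quantified in culture supernatant by ELISA, IL-12 assay detecting both p70 and free p40; values are fold increase over untreated control cells.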

[6] = system: Jurkat human leukemia T cells; assay: Inhibition of Jurkat human leukemia T cell proliferation (MTT reduction); conditions: for % INHIBITION of Jurkat proliferation at suboptimal concentration: 5.0 μg/ml of each 6 base sequence, alone or two together; for % INHIBITION of Jurkat human leukemia T cell proliferation: 100 μg/ml sequence, 48 h, 2.5×10^5 cells/ml
Summary of the method: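 Jurkat cells at 2.5×10^5 cells/ml exposed to 100 μg/ml of 2–45-base A/C/G/T sequences (0 μg/ml control) for 48 h, 37° C, 5% CO2. Viability by MTT reduction read at 570 nm.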

## GGGTGG [SEQ ID NO:25]
[1]
  IL-1 beta fold increase: mean +/− SD: 1.0 +/− 0.1 fold increase
  IL-6 fold increase: mean +/− SD: 20.9 +/− 18.0 fold increase
  IL-10 fold increase: mean +/− SD: 11.6 +/− 1.2 fold increase
  IL-12 fold increase: mean +/− SD: 13.2 +/− 11.5 fold increase
Chimpanzee PBMCs
  IL-10 fold increase: mean +/− SD: 2.5 +/− 1.5 fold increase
  IL-12 fold increase: mean +/− SD: 13.5 +/− 8.4 fold increase
  TNF-alpha fold increase: mean +/− SD: 11.7 +/− 6.7 fold increase
Rhesus monkey PBMCs
  IL-10 fold increase: mean +/− SD: 1.0 +/− 0.1 fold increase
  IL-12 fold increase: mean +/− SD: 10.6 +/− 4.7 fold increase
  TNF-alpha fold increase: mean +/− SD: 12.5 +/− 5.2 fold increase
[2]
  % INHIBITION of LNCaP human prostate cancer cell proliferation: 18%
[3]
  % INHIBITION of HL-60 human promyelocytic leukemia cell proliferation: 35%
[4]
  % INHIBITION of A20 murine B leukemia cell proliferation: 11%
[5]
  ↑ IL-6 (fold increase treated vs control cells): 3.1x
  ↑ IL-12 (fold increase treated vs control cells): 2.3x and 2.0x
[5]; listed as GoGoGoToGoGo
  ↑ IL-12 (fold increase treated vs control cells): 2.0 x
[6]
  % INHIBITION of Jurkat proliferation at suboptimal concentration: 5%
  % INHIBITION of Jurkat human leukemia T cell proliferation: 60%
[6]; 5-fluorouracil 0.1 μg/ml, alone or with sequence at 1.0 μg/ml
  % INHIBITION of Jurkat proliferation, 5-Fluorouracil 0.1 μg/ml: 10%
[6]; 5-fluorouracil 1.0 μg/ml, alone or with sequence at 1.0 μg/ml
  % INHIBITION of Jurkat proliferation, 5-Fluorouracil 1.0 μg/ml: 21%
[6]; 5-fluorouracil 10.0 μg/ml, alone or with sequence at 1.0 μg/ml
  % INHIBITION of Jurkat proliferation, 5-Fluorouracil 10.0 μg/ml: 40%
[6]; Jurkat proliferation, PHARM/PCS-4 Software
  relative potency versus AGT SEQ ID NO:49: 3.4 times
[6]; cisplatin 0.1 μg/ml, alone or with sequence at 1.0 μg/ml
  % INHIBITION of Jurkat proliferation, Cisplatin 0.1 μg/ml: 14%
[6]; cisplatin 1.0 μg/ml, alone or with sequence at 1.0 μg/ml
  % INHIBITION of Jurkat proliferation, Cisplatin 1.0 μg/ml: 38%
[6]; cisplatin 10.0 μg/ml, alone or with sequence at 1.0 μg/ml
  % INHIBITION of Jurkat proliferation, Cisplatin 10.0 μg/ml: 76%
[6]; sequence 1.0 μg/ml, 0.1 and 1.0 μg/ml 5-fluorouracil
  potentiation of antineoplastic effect of 5-fluorouracil on Jurkat T cell proliferation: potentiated
[6]; sequence 1.0 μg/ml, 0.1 and 1.0 μg/ml cisplatin
  potentiation of antineoplastic effect of cisplatin on Jurkat T cell proliferation: potentiated
[6]; sequence at 1.0 μg/ml, 5-fluorouracil 0.0 μg/ml
  % INHIBITION of Jurkat proliferation, 5-Fluorouracil 0.0 μg/ml: 0%
[6]; sequence at 1.0 μg/ml, cisplatin 0.0 μg/ml
  % INHIBITION of Jurkat proliferation, Cisplatin 0.0 μg/ml: 0%

## GTGTGT [SEQ ID NO:10]
[1]
  IL-1 beta fold increase: mean +/− SD: 2.0 +/− 1.6 fold increase
  IL-6 fold increase: mean +/− SD: 9.8 +/− 14.2 fold increase
  IL-10 fold increase: mean +/− SD: 1.0 +/− 0.1 fold increase
  IL-12 fold increase: mean +/− SD: 4.0 +/− 6.3 fold increase
Chimpanzee PBMCs
  IL-10 fold increase: mean +/− SD: 4.0 +/− 2.1 fold increase
  IL-12 fold increase: mean +/− SD: 14.0 +/− 8.5 fold increase
  TNF-alpha fold increase: mean +/− SD: 12.9 +/− 6.4 fold increase
Rhesus monkey PBMCs
  IL-10 fold increase: mean +/− SD: 1.3 +/− 0.1 fold increase
  IL-12 fold increase: mean +/− SD: 10.7 +/− 4.1 fold increase
  TNF-alpha fold increase: mean +/− SD: 16.1 +/− 4.2 fold increase
[2]
  % INHIBITION of LNCaP human prostate cancer cell proliferation: −4%
[3]
  % INHIBITION of HL-60 human promyelocytic leukemia cell proliferation: 13%
[4]
  % INHIBITION of A20 murine B leukemia cell proliferation: 9%
[5]
  ↑ IL-6 (fold increase treated vs control cells): 5.0x
  ↑ IL-12 (fold increase treated vs control cells): 2.2x
[6]
  % INHIBITION of Jurkat proliferation at suboptimal concentration: 2%
  % INHIBITION of Jurkat human leukemia T cell proliferation: 44% and 48%

## TTGTTT [SEQ ID NO:26]
[1]
  IL-1 beta fold increase: mean +/− SD: 1.5 +/− 0.9 fold increase
  IL-6 fold increase: mean +/− SD: 5.8 +/− 8.0 fold increase
  IL-10 fold increase: mean +/− SD: 1.0 +/− 0.1 fold increase
  IL-12 fold increase: mean +/− SD: 1.6 +/− 1.3 fold increase
Chimpanzee PBMCs
  IL-10 fold increase: mean +/− SD: 1.4 +/− 0.9 fold increase
  IL-12 fold increase: mean +/− SD: 12.3 +/− 8.5 fold increase
  TNF-alpha fold increase: mean +/− SD: 7.5 +/− 4.6 fold increase
Rhesus monkey PBMCs
  IL-10 fold increase: mean +/− SD: 1.0 +/− 0.1 fold increase
  TNF-alpha fold increase: mean +/− SD: 2.1 +/− 1.0 fold increase
[2]
  % INHIBITION of LNCaP human prostate cancer cell proliferation: 22%
[3]
  % INHIBITION of HL-60 human promyelocytic leukemia cell proliferation: 16%
[4]
  % INHIBITION of A20 murine B leukemia cell proliferation: 15%
[5]
  ↑ IL-6 (fold increase treated vs control cells): 5.3 x
  ↑ IL-12 (fold increase treated vs control cells): 3.5x and 3.8x
[6]
  % INHIBITION of Jurkat proliferation at suboptimal concentration: −2%
  % INHIBITION of Jurkat human leukemia T cell proliferation: 34%
